Measured values published in ChEMBL document CHEMBL1152405, “Bis-anthracenyl isoxazolyl amides have enhanced anticancer activity” (Bioorg Med Chem Lett, 2009).

Key:
Format in all cases: functional
SNB-75 = assay: Growth inhibition of human SNB75 cells after 24 hrs by MTT assay; settings: SNB-75, 24 h
SK-MEL-2 = assay: Growth inhibition of human SK-MEL-2 cells after 24 hrs by MTT assay; settings: SK-MEL-2, 24 h
SK-MEL-28 = assay: Growth inhibition of human SK-MEL-28 cells after 24 hrs by MTT assay; settings: SK-MEL-28, 24 h
UACC-257 = assay: Growth inhibition of human UACC257 cells after 24 hrs by MTT assay; settings: UACC-257, 24 h
NCI/ADR-RES = assay: Growth inhibition of human NCI/ADR-RES cells after 24 hrs by MTT assay
SK-OV-3 = assay: Growth inhibition of human SKOV3 cells after 24 hrs by MTT assay; settings: SK-OV-3, 24 h
786-0 = assay: Growth inhibition of human 786-0 cells after 24 hrs by MTT assay; settings: 786-0, 24 h
RXF 393 [1] = assay: Growth inhibition of human RXF393 cells after 24 hrs by MTT assay; settings: RXF 393, 24 h
UO-31 = assay: Growth inhibition of human UO31 cells after 24 hrs by MTT assay; settings: UO-31, 24 h
DU-145 = assay: Growth inhibition of human DU145 cells after 24 hrs by MTT assay; settings: DU-145, 24 h
MDA-MB-468 = assay: Growth inhibition of human MDA-MB-468 cells after 24 hrs by MTT assay; settings: MDA-MB-468, 24 h
RXF 393 [2] = assay: Growth inhibition of human RXF393 cells at 10 uM after 24 hrs by MTT assay relative to control; set-up: scale not given: the % may be the effect or the level left
[3] = read-out: pLC50 (the source's name) (converted)
[4] = read-out: LC50 (the source's name)

## Cc1onc(-c2c3ccccc3c(Cl)c3ccccc23)c1C(=O)Nc1cc(C(=O)NCCCN(C)CCCNC(=O)c2cc(NC(=O)c3c(-c4c5ccccc5c(Cl)c5ccccc45)noc3C)cn2C)n(C)c1
SNB-75; read-out: pGI50 (converted)
  GI50: 1.07 µM
SNB-75; [3]
  CC50: 6.92 µM
SK-MEL-2
  TGI: 4.1 µM
SK-MEL-2; read-out: GI50
  GI50: 2.08 µM
SK-MEL-2; read-out: pGI50 (converted)
  GI50: 2.09 µM
SK-MEL-28
  TGI: 2.98 µM
SK-MEL-28; read-out: GI50
  GI50: 1.63 µM
SK-MEL-28; [4]
  CC50: 5.46 µM
SK-MEL-28; read-out: pGI50 (converted)
  GI50: 1.62 µM
SK-MEL-28; [3]
  CC50: 5.5 µM
UACC-257
  TGI: 4.63 µM
UACC-257; read-out: GI50
  GI50: 2.15 µM
UACC-257; read-out: pGI50 (converted)
  GI50: 2.14 µM
NCI/ADR-RES
  TGI: > 100 µM
NCI/ADR-RES; read-out: GI50
  GI50: 13.2 µM
NCI/ADR-RES; [4]
  CC50: 100 µM
NCI/ADR-RES; read-out: pGI50 (converted)
  GI50: 13.2 µM
NCI/ADR-RES; [3]
  CC50: > 100 µM
SK-OV-3
  TGI: 2.87 µM
SK-OV-3; read-out: GI50
  GI50: 1.54 µM
SK-OV-3; [4]
  CC50: 5.36 µM
SK-OV-3; read-out: pGI50 (converted)
  GI50: 1.55 µM
SK-OV-3; [3]
  CC50: 5.37 µM
786-0
  TGI: 4.94 µM
786-0; read-out: GI50
  GI50: 2.13 µM
786-0; [4]
  CC50: 16.7 µM
786-0; read-out: pGI50 (converted)
  GI50: 2.14 µM
786-0; [3]
  CC50: 16.6 µM
RXF 393 [1]
  TGI: 3.3 µM
RXF 393 [1]; read-out: GI50
  GI50: 1.63 µM
RXF 393 [1]; read-out: pGI50 (converted)
  GI50: 1.62 µM
UO-31
  TGI: 3.4 µM
UO-31; read-out: GI50
  GI50: 1.78 µM
UO-31; read-out: pGI50 (converted)
  GI50: 1.78 µM
DU-145
  TGI: 2.6 µM
DU-145; read-out: GI50
  GI50: 1.33 µM
DU-145; [4]
  CC50: 5.1 µM
DU-145; read-out: pGI50 (converted)
  GI50: 1.32 µM
DU-145; [3]
  CC50: 5.13 µM
MDA-MB-468
  TGI: 2.78 µM
MDA-MB-468; read-out: GI50
  GI50: 1.33 µM
MDA-MB-468; [4]
  CC50: 5.81 µM
MDA-MB-468; read-out: pGI50 (converted)
  GI50: 1.32 µM
MDA-MB-468; [3]
  CC50: 5.75 µM
RXF 393 [2]
  Activity: -61.83%
